# Laboratory results from patent publication US7531575B2, “Method of modulating cellular activity and agents useful for same” (Eberhard-Karls-Universität Tübingin, priority 2002, dated 2009).
# Tests used:
# Assay type in all cases: cell-based, murine
# iNOS = iNOS activity by Griess assay (NO2 release), IFN-γ-stimulated N9 microglia; conditions: N9 cells, IFN-γ 200 u ml, 48 h
# Description: (§1) Tranilast was a generous gift of Kissei Pharmaceuticals (Nagano, Japan). Murine recombinant IFN-γ was purchased from Boehringer (Mannheim, Germany). Dexamethasone (DEX) was obtained from Sigma (Deisenhofen, Germany). N9 murine microglial cells were a kind gift from P. Ricciardi-Castagnoli (Milano, Italy) (Righi, M., Mori, L., De Libero, G., Sironi, M., Biondi, A., Mantovani, A., Donini, S. D. and Ricciardi-Castagnoli, P. Eur J Immunol 19(8):1443-1448, 1989). The cells were cultured in Dulbecco's modified Eagle's medium (DMEM) supplemented with 10% foetal calf serum (FCS), 2 mM glutamine and penicillin ([…])/streptomycin (100 μg ml), and maintained at 37° C. in an atmosphere of 5% CO2. Viability was assessed by crystal violet staining.
# iNOS activity was assessed by the Griess assay as described elsewhere (Rieger, J., Stander, M., Loschmann, P. A., Heneka, M., Dichgans, J., Klockgether, T. and Weller, M., Oncogene, 17:2323-2332, 1998). Briefly, conditioned supernatant (100 μl) was incubated with an equal volume of 1% sulphanilamide/0.1% naphthyl ethylene diamine dihydrochloride/2.5% H3PO4 (Griess reagent) (Green, L. C., Wagner, D. A., Glogowski, J., Skipper, P. I., Wishnok, J. S, and Tannenbaum, S. R., Anal. Biochem., 126:131-138, 1982), incubated for 5 min at room temperature, and the absorbance at […] determined. Solutions of NaNO2 diluted in DMEM served as standards. The absorbance readings resulting from DMEM alone were subtracted from the sample values. Cell density was assessed using crystal violet staining to control for differences in cell proliferation. iNOS activity is thus expressed here as NO2 accumulated per 48 h per 10^5 cells.
# IκBα = assay: phospho-IκBα immunoblot, IFN-γ-stimulated N9 microglia; conditions: N9 cells, IFN-γ 200 u ml, tranilast 30-300 μM, 4 h preincubation
# Description: as §1
# For the preparation of whole cell lysates, the cells were rinsed in phosphate-buffered saline (PBS), harvested, centrifuged at 1200×g, lysed in 0.1 M TRIS-HCl (pH 7.2) containing 0.1% NP40, 0.1 mM EDTA and 5 μg ml PMSF for 40 min on ice, and centrifuged at 10,000×g for 10 min. Protein concentration was determined using Biorad reagents with photometric analysis. Proteins (20 μg lane) were separated by 10-12% SDS-PAGE and electroblotted on nitrocellulose. qual protein loading was controlled by Ponceau S staining. […]
# NF-κB = NF-κB reporter assay, LPS-stimulated N9 microglia; conditions: N9 cells, LPS 10 μg/mL 4 hr, TNL pre-incubation 1 hr
# Description: NF-κB reporter gene activity was assayed as previously described (Platten, M. et al. 2001 supra). Briefly, 8×10^3 cells/well were seeded in a 96-well plate and transfected with an NF-κB cis reporter gene plasmid (PathDetect No. 219077, Stratagene) encoding firefly luciferase using FuGene™ transfection reagent (Roche). pFC-MEKK (Stratagene) and pcDNA3 plasmids cotransfected with the reporter plasmid served as positive and negative controls. After freezing and thawing, the cells were lysed in 40 mM Tricine (pH 7.8) containing 50 mM NaCl, 2 mM EDTA, 1 mM MgSO4, 5 mM DTT and 1% Triton X-100. Lysates were assayed using Luciferase assay reagent (40 mM Tricine, pH 7.8, containing 10 mM MgSO4, 0.5 mM EDTA, 10 mM DTT, 0.5 mM coenzyme A, […] and 0.5 mM beetle luciferine). Luminescence was measured in LumiNunc™ plates (Nunc) in a LumimatPlus™ (EG&G Berthold). Values are expressed as relative light units (RLU).
smiles,measurement,setting,value
"COc1ccc(/C=C/C(=O)Nc2ccccc2C(=O)O)cc1OC [tranilast, 2-[[3-(3,4-dimethoxyphenyl)-1-oxo-2-propenyl]amino]benzoic acid]",inhibition of NO release,iNOS; concentration series,concentration-dependent inhibition
same,"reduction of NO release (NO2, Griess assay)",iNOS; tranilast 300 μM,65%
same,IκB phosphorylation in response to IFN-γ,IκBα,concentration-dependent suppression
same,LPS-mediated NF-κB reporter gene activity,NF-κB,did not suppress
